According to patent US20120029187A1, “HALOALKYLSULFONANILIDE DERIVATIVE” (Nissan Chemical Industries, Ltd., priority 2009, published 2012):

How the values were obtained:
Assay type in all cases: in vivo
large crabgrass [1] = assay: Test Example 4: herbicidal effect in foliage treatment; conditions: dose 6.3 g/a, three weeks after the application
Summary of the method: (§1)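 Herbicidal effect was rated on an evaluation scale three weeks after treatment. Plants had been raised 14 days at 25 to 30° C in sterilized diluvial soil, then received foliar sprays of emulsifiable concentrate diluted in water at predetermined doses expressed as g per are.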

common lambsquater [2] = assay: as above; conditions: dose 6.3 g/a, three weeks after the application
Summary of the method: as §1

water foxtail [3] = assay: as above; conditions: dose 6.3 g/a, three weeks after the application
Summary of the method: as §1

common ragweed [4] = assay: as above; conditions: dose 6.3 g/a, three weeks after the application
Summary of the method: as §1

giant foxtail [5] = assay: as above; conditions: dose 6.3 g/a, three weeks after the application
Summary of the method: as §1

common chickweed [6] = assay: as above; conditions: dose 6.3 g/a, three weeks after the application
Summary of the method: as §1

Italian ryegrass [7] = assay: as above; conditions: dose 6.3 g/a, three weeks after the application
Summary of the method: as §1

wild oat [8] = assay: as above; conditions: dose 6.3 g/a, three weeks after the application
Summary of the method: as §1

beadstraw = assay: as above; conditions: dose 6.3 g/a, three weeks after the application
Summary of the method: as §1

barnyardgrass [9] = assay: as above; conditions: dose 6.3 g/a, three weeks after the application
Summary of the method: as §1

ducksalad [10] = assay: Test Example 2: herbicidal effects during the vegetation period under submerged conditions; conditions: treatment during the vegetation period under submerged conditions; dose 2.52 g/a
Summary of the method: (§2)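 Barnyardgrass, bulrush and ducksalad were co-sown in alluvial soil flooded to 4 cm and grown in a greenhouse at 25 to 30° C. At the 1- or 2-leaf stage, water-diluted emulsifiable concentrates went onto the water surface at set doses (g/a). Herbicidal effect was scored three weeks later on a graded scale.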

bulrush [11] = assay: as above; conditions: treatment during the vegetation period under submerged conditions; dose 2.52 g/a
Summary of the method: as §2

barnyardgrass [12] = assay: as above; conditions: treatment during the vegetation period under submerged conditions; dose 2.52 g/a
Summary of the method: as §2

large crabgrass [13] = assay: Test Example 3: herbicidal effects in soil treatment; conditions: dose 6.3 g/a
Summary of the method: (§3)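 Seeds were sown in sterilized diluvial soil and covered with about 1.5 cm of soil. Compounds, formulated as emulsifiable concentrates and diluted with water, were sprayed evenly over the soil surface at set doses in g/a. Herbicidal effect was scored on a rating scale three weeks later.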

common lambsquater [14] = assay: as above; conditions: dose 6.3 g/a
Summary of the method: as §3

water foxtail [15] = assay: as above; conditions: dose 6.3 g/a
Summary of the method: as §3

common ragweed [16] = assay: as above; conditions: dose 6.3 g/a
Summary of the method: as §3

giant foxtail [17] = assay: as above; conditions: dose 6.3 g/a
Summary of the method: as §3

common chickweed [18] = assay: as above; conditions: dose 6.3 g/a
Summary of the method: as §3

Italian ryegrass [19] = assay: as above; conditions: dose 6.3 g/a
Summary of the method: as §3

wild oat [20] = assay: as above; conditions: dose 6.3 g/a
Summary of the method: as §3

barnyardgrass [21] = assay: as above; conditions: dose 6.3 g/a
Summary of the method: as §3

soybean [22] = assay: Test Example 3: soil treatment, effect on crop; conditions: dose 6.3 g/a
Source text: (§4) Test on the Herbicidal Effects in Soil Treatment
(§5) Sterilized diluvial soil was put in plastic boxes with a length of 21 cm, a width of 13 cm and a depth of 7 cm, and seeds of barnyardgrass, large crabgrass, giant foxtail, wild oat, blackgrass, velvetleaf, common ragweed, redroot pigweed, common lambsquater, posumbu knotweed, common chickweed corn, soybean, rice, wheat and sugar beet were sown in spots and covered with an about 1.5 cm-thick soil layer. Emulsifiable concentrates containing compounds of the present invention formulated in accordance with Formulation Example 2 were uniformly applied to the soil surfaces at predetermined doses through a small sprayer after dilute with water. Three weeks after the application, the herbicidal effects against various plants were determined on the same evaluation scale as in Test Example 1.
(§6) A: barnyardgrass, B: bulrush, C: ducksalad, D: large crabgrass, E: giant foxtail, F: wild oat, G: water foxtail, H: Italian ryegrass, I: velvetleaf, J: common ragweed, K: redroot pigweed, L: common lambsquater, M: posumbu knotweed, N: common chickweed, O: beadstraw, a: transplanted rice, b: corn, c: soybean, d: direct-seeded rice, e: wheat, f: sugar beet.
(§7) The doses (g/a) represents the amounts in g per 1 are (a) applied after adjustment of concentration adjustment.

sugar beet [23] = assay: Test Example 3: soil treatment, effect on crop; conditions: dose 6.3 g/a
Source text: as §4, §5, §6, §7

direct-seeded rice [24] = assay: Test Example 3: soil treatment, effect on crop; conditions: dose 6.3 g/a
Source text: as §4, §5, §6, §7

corn [25] = assay: Test Example 3: soil treatment, effect on crop; conditions: dose 6.3 g/a
Source text: as §4, §5, §6, §7

wheat [26] = assay: Test Example 3: soil treatment, effect on crop; conditions: dose 6.3 g/a
Source text: as §4, §5, §6, §7

transplanted rice = assay: Test Example 1: preemergence treatment under submerged conditions, effect on crop; conditions: dose 2.52 g/a
Summary of the method: (§8)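 Alluvial soil was flooded to 4 cm, sown with barnyardgrass, bulrush and ducksalad, and planted with 2.5-leaf rice seedlings. On the seeding day, water-diluted emulsifiable concentrates were applied to the water surface at set doses (g/a). After three weeks in a 25 to 30° C. greenhouse, mortality was scored 0–5.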

soybean [27] = assay: Test Example 4: foliage treatment, effect on crop; conditions: dose 6.3 g/a, three weeks after the application
Source text: (§9) Test on the Herbicidal Effect in Foliage Treatment
as §5, with “chickweed,” for “chickweed”, “The boxes were placed in a greenhouse at 25 to 30° C. to grow the plants. After 14 days, emulsifiable” for “Emulsifiable”, “foliage” for “soil surfaces”, “diluted” for “dilute”
as §6, §7

sugar beet [28] = assay: Test Example 4: foliage treatment, effect on crop; conditions: dose 6.3 g/a, three weeks after the application
Source text: as §9
as §5, with “chickweed,” for “chickweed”, “The boxes were placed in a greenhouse at 25 to 30° C. to grow the plants. After 14 days, emulsifiable” for “Emulsifiable”, “foliage” for “soil surfaces”, “diluted” for “dilute”
as §6, §7

direct-seeded rice [29] = assay: Test Example 4: foliage treatment, effect on crop; conditions: dose 6.3 g/a, three weeks after the application
Source text: as §9
as §5, with “chickweed,” for “chickweed”, “The boxes were placed in a greenhouse at 25 to 30° C. to grow the plants. After 14 days, emulsifiable” for “Emulsifiable”, “foliage” for “soil surfaces”, “diluted” for “dilute”
as §6, §7

corn [30] = assay: Test Example 4: foliage treatment, effect on crop; conditions: dose 6.3 g/a, three weeks after the application
Source text: as §9
as §5, with “chickweed,” for “chickweed”, “The boxes were placed in a greenhouse at 25 to 30° C. to grow the plants. After 14 days, emulsifiable” for “Emulsifiable”, “foliage” for “soil surfaces”, “diluted” for “dilute”
as §6, §7

wheat [31] = assay: Test Example 4: foliage treatment, effect on crop; conditions: dose 6.3 g/a, three weeks after the application
Source text: as §9
as §5, with “chickweed,” for “chickweed”, “The boxes were placed in a greenhouse at 25 to 30° C. to grow the plants. After 14 days, emulsifiable” for “Emulsifiable”, “foliage” for “soil surfaces”, “diluted” for “dilute”
as §6, §7

ducksalad [32] = assay: Test Example 1: herbicidal effects in preemergence treatment under submerged conditions; conditions: dose 2.52 g/a
Summary of the method: as §8

bulrush [33] = assay: as above; conditions: dose 2.52 g/a
Summary of the method: as §8

barnyardgrass [34] = assay: as above; conditions: dose 2.52 g/a
Summary of the method: as §8

CCOC(=O)N(c1ccccc1CN1CCOCCC1=O)S(=O)(=O)C(F)(F)F [Compound V-2]
D: large crabgrass, herbicidal effect (large crabgrass [1]): 2 (mortality of at least 20% and less than 40%)
L: common lambsquater, herbicidal effect (common lambsquater [2]): 5 (mortality of 90% or above (nearly complete death))
G: water foxtail, herbicidal effect (water foxtail [3]): 5 (mortality of 90% or above (nearly complete death))
J: common ragweed, herbicidal effect (common ragweed [4]): 5 (mortality of 90% or above (nearly complete death))
E: giant foxtail, herbicidal effect (giant foxtail [5]): 4 (mortality of at least 70% and less than 90%)
N: common chickweed, herbicidal effect (common chickweed [6]): 4 (mortality of at least 70% and less than 90%)
H: Italian ryegrass, herbicidal effect (Italian ryegrass [7]): 0 (mortality of less than 5% (almost ineffective))
F: wild oat, herbicidal effect (wild oat [8]): 0 (mortality of less than 5% (almost ineffective))
O: beadstraw, herbicidal effect (beadstraw): 3 (mortality of at least 40% and less than 70%)
A: barnyardgrass, herbicidal effect (barnyardgrass [9]): 5 (mortality of 90% or above (nearly complete death))
C: ducksalad, herbicidal effect (evaluation scale 0-5) (ducksalad [10]): 5 (mortality of 90% or above (nearly complete death))
B: bulrush, herbicidal effect (evaluation scale 0-5) (bulrush [11]): 5 (mortality of 90% or above (nearly complete death))
A: barnyardgrass, herbicidal effect (evaluation scale 0-5) (barnyardgrass [12]): 4 (mortality of at least 70% and less than 90%)
herbicidal effect, D: large crabgrass (large crabgrass [13]): 1 (mortality of at least 5% and less than 20%)
herbicidal effect, L: common lambsquater (common lambsquater [14]): 5 (mortality of 90% or above (nearly complete death))
herbicidal effect, G: water foxtail (water foxtail [15]): 5 (mortality of 90% or above (nearly complete death))
herbicidal effect, J: common ragweed (common ragweed [16]): 5 (mortality of 90% or above (nearly complete death))
herbicidal effect, E: giant foxtail (giant foxtail [17]): 3 (mortality of at least 40% and less than 70%)
herbicidal effect, N: common chickweed (common chickweed [18]): 5 (mortality of 90% or above (nearly complete death))
herbicidal effect, H: Italian ryegrass (Italian ryegrass [19]): 0 (mortality of less than 5% (almost ineffective))
herbicidal effect, F: wild oat (wild oat [20]): 0 (mortality of less than 5% (almost ineffective))
herbicidal effect, A: barnyardgrass (barnyardgrass [21]): 4 (mortality of at least 70% and less than 90%)
effect on crop, c: soybean (soybean [22]): 0 (mortality of less than 5% (almost ineffective))
effect on crop, f: sugar beet (sugar beet [23]): 4 (mortality of at least 70% and less than 90%)
effect on crop, d: direct-seeded rice (direct-seeded rice [24]): 0 (mortality of less than 5% (almost ineffective))
effect on crop, b: corn (corn [25]): 0 (mortality of less than 5% (almost ineffective))
effect on crop, e: wheat (wheat [26]): 0 (mortality of less than 5% (almost ineffective))
a: transplanted rice, effect on crop (evaluation scale 0-5) (transplanted rice): 0 (mortality of less than 5% (almost ineffective))
c: soybean, effect on crop (soybean [27]): 3 (mortality of at least 40% and less than 70%)
f: sugar beet, effect on crop (sugar beet [28]): 3 (mortality of at least 40% and less than 70%)
d: direct-seeded rice, effect on crop (direct-seeded rice [29]): 3 (mortality of at least 40% and less than 70%)
b: corn, effect on crop (corn [30]): 1 (mortality of at least 5% and less than 20%)
e: wheat, effect on crop (wheat [31]): 0 (mortality of less than 5% (almost ineffective))
C: ducksalad, herbicidal effect (evaluation scale 0-5) (ducksalad [32]): 5 (mortality of 90% or above (nearly complete death))
B: bulrush, herbicidal effect (evaluation scale 0-5) (bulrush [33]): 5 (mortality of 90% or above (nearly complete death))
A: barnyardgrass, herbicidal effect (evaluation scale 0-5) (barnyardgrass [34]): 5 (mortality of 90% or above (nearly complete death))
